Source: ChEMBL document CHEMBL1126501, “Differences in antiviral activities for isomers of a fluorinated cyclobutane nucleoside analog” (Bioorg Med Chem Lett, 1993)

Key:
Assay type in all cases: functional, organism-based
[1] = test system: Human alphaherpesvirus 3; assay: In vitro antiviral activity was evaluated against VZV using viral plaque reduction assay; Value ranges from 0.02-0.08
[2] = test system: Human alphaherpesvirus 1; assay: In vitro antiviral activity was evaluated against HSV-1 using viral plaque reduction assay; Value ranges from […]
[3] = test system: Human alphaherpesvirus 2; assay: In vitro antiviral activity was evaluated against HSV-2 using viral plaque reduction assay
[4] = test system: Human betaherpesvirus 5; assay: In vitro antiviral activity was evaluated against HCMV using viral plaque reduction assay
[5] = test system: Human betaherpesvirus 5; assay: In vitro antiviral activity was evaluated against HCMV using viral plaque reduction assay; Value ranges from 4-40
[6] = test system: Human alphaherpesvirus 1; assay: In vitro antiviral activity was evaluated against HSV-1 using viral plaque reduction assay; Value ranges from 0.7-2
[7] = test system: Human alphaherpesvirus 3; assay: In vitro antiviral activity was evaluated against VZV using viral plaque reduction assay; Value ranges from 2-4
[8] = test system: Human alphaherpesvirus 1; assay: In vitro antiviral activity was evaluated against HSV-1 using viral plaque reduction assay
[9] = test system: Human alphaherpesvirus 3; assay: In vitro antiviral activity was evaluated against VZV using viral plaque reduction assay
[10] = test system: Human betaherpesvirus 5; assay: In vitro antiviral activity was evaluated against HCMV using viral plaque reduction assay; Value ranges from 20-40

Row | IC50 [3] [nM] | IC50 [8] [nM] | SMILES | IC50 ([3]; Human alphaherpesvirus 2) [nM] | IC50 [4] [nM] | further results
1 |  |  | Nc1nc(O)c2ncn([C@@H]3C[C@H](CO)C3CO)c2n1 (mixture of isomers) | 40 | 2000 | IC50 [1]: 20 nM; IC50 [2]: 40 nM
2 | 700 |  | Nc1nc(O)c2ncn([C@@H]3C(F)[C@H](CO)C3CO)c2n1 (mixture of isomers; form 1) |  |  | IC50 [5]: 4000 nM; IC50 [6]: 700 nM; IC50 [7]: 2000 nM
3 | > 250000 | > 250000 | Nc1nc(O)c2ncn([C@@H]3C(F)[C@H](CO)C3CO)c2n1 (mixture of isomers; form 2) |  | > 250000 | IC50 [9]: > 250000 nM
4 |  | 400 | Nc1nc2c(ncn2COCCO)c(=O)[nH]1 [ACYCLOVIR] | 400 |  | IC50 [10]: 20000 nM
